The values below come from ChEMBL document CHEMBL2146395, “[¹⁸F]FE@SNAP-A new PET tracer for the melanin concentrating hormone receptor 1 (MCHR1): microfluidic and vessel-based approaches” (Bioorg Med Chem, 2012).

pKd: −log10 of the molar value. Calls of active or inactive are those of the source. The calls are words filed in the database; no cut-off is given here.

The test system of one series is carboxyl esterase. As to the kind of experiment: Drug degradation after 6 hrs in presence of carboxyl esterase. The following applies: read-out: Drug degradation. It counts as physicochemical.
Series [1] can be described thus: Drug degradation in human plasma up to 120 mins. As to conditions: read-out: Drug degradation. It counts as ADME, cell-free.
In series [2] the target is T1, Melanin-concentrating hormone receptor 1 (Homo sapiens, UniProt Q99705). As to the kind of experiment: Binding affinity to human MCHR1 expressed in COS7 cells. Format: cell-based, COS-7.
T1 sequence (Q99705 whole entry): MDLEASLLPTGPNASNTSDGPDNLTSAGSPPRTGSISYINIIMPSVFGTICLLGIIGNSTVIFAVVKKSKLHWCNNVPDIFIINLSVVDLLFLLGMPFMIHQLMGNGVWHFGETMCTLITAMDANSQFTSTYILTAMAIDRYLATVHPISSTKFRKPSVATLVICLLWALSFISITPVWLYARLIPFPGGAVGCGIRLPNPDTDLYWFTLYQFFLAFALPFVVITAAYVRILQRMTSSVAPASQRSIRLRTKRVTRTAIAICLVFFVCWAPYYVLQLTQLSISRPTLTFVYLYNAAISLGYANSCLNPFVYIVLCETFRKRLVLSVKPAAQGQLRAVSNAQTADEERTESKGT
Series [3] deals with T1, Melanin-concentrating hormone receptor 1. Put plainly: Binding affinity to human MCHR1 expressed in CHO cell membranes. The following applies: tested as the 18F-labelled form.

For `COCC1=C(C(=O)OCC[18F])C(c2ccc(F)c(F)c2)N(C(=O)NCCCN2CCC(c3cccc(NC(C)=O)c3)CC2)C(=O)N1` (centres undefined), the metabolised at 6 h in the series with carboxyl esterase amounted to 20%. In addition, the metabolised at 2 h in series [1] is less than 5%.
Consider `COCC1=C(C(=O)OC)[C@H](c2ccc(F)c(F)c2)N(C(=O)NCCCN2CCC(c3cccc(NC(C)=O)c3)CC2)C(=O)N1`, for which the pKd (as a rule, the negative decadic logarithm of the Kd, by convention in mol/L) in series [2] is 9.74.
Consider `COCC1=C(C(=O)OCCF)C(c2ccc(F)c(F)c2)N(C(=O)NCCCN2CCC(c3cccc(NC(C)=O)c3)CC2)C(=O)N1` (centres undefined), for which, in series [3], the outcome was Active.
